Measured values reported in ChEMBL document CHEMBL1201862, “PubChem BioAssay data set” (2004).
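Test compounds were applied to cells in 96-well plates for 48 hours at 5 doses. GI50 is the concentration that inhibits growth by half.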 Calls of active or inactive are those of the source. Cut-off read from the data, not from the text of the source: active = GI50 up to about 1.1 µM and inactive = higher.

Legend:
Assay in all cases: inhibition of tumour cell growth, NCI panel, 48 h
ACHN = test system: ACHN
SW-620 = test system: SW-620
OVCAR-5 = test system: OVCAR-5
HOP-92 = test system: HOP-92
NCI-H460 = test system: NCI-H460
HL-60 = test system: HL-60
HCT-116 = test system: HCT-116
COLO 205 = test system: COLO 205
CAKI-1 = test system: CAKI-1
NCI-H522 = test system: NCI-H522
TK-10 = test system: TK-10
SK-OV-3 = test system: SK-OV-3
786-0 = test system: 786-0
HOP-62 = test system: HOP-62
SK-MEL-2 = test system: SK-MEL-2
M14 = test system: M14
SK-MEL-28 = test system: SK-MEL-28
PC-3 = test system: PC-3
MDA-MB-435 = test system: MDA-MB-435

Measured: GI50

O=C(Cc1nc2sc3c(c2c(=O)[nH]1)CCCC3)Nc1ccccc1
inactive: ACHN > 100 µM | SW-620 > 100 µM | OVCAR-5 > 100 µM | HOP-92 > 100 µM | NCI-H460 > 100 µM | HL-60 > 100 µM | HCT-116 > 100 µM | COLO 205 > 100 µM | CAKI-1 > 100 µM | NCI-H522 > 100 µM | TK-10 > 100 µM | SK-OV-3 43.5 µM | 786-0 71.1 µM | HOP-62 > 100 µM | SK-MEL-2 > 100 µM | M14 > 100 µM | SK-MEL-28 > 100 µM

CC(C)(C)OC(=O)[C@@H]1CCC(=S)N1Cc1ccccc1
inactive: ACHN > 100 µM | SW-620 > 100 µM | PC-3 > 100 µM | OVCAR-5 > 100 µM | HOP-92 > 100 µM | NCI-H460 > 100 µM | HCT-116 > 100 µM | COLO 205 > 100 µM | CAKI-1 > 100 µM | NCI-H522 > 100 µM | TK-10 > 100 µM | MDA-MB-435 > 100 µM | SK-OV-3 > 100 µM | 786-0 > 100 µM | SK-MEL-2 > 100 µM | M14 > 100 µM | SK-MEL-28 > 100 µM

CCOC1OC(CO)C(O)CC1n1ccc(=O)[nH]c1=O (configuration not stated)
inactive: ACHN > 100 µM | SW-620 > 100 µM | PC-3 > 100 µM | OVCAR-5 > 100 µM | HOP-92 > 100 µM | NCI-H460 > 100 µM | HCT-116 > 100 µM | COLO 205 > 100 µM | CAKI-1 > 100 µM | NCI-H522 30.3 µM | TK-10 > 100 µM | MDA-MB-435 > 100 µM | 786-0 > 100 µM | SK-MEL-2 > 100 µM | M14 > 100 µM | SK-MEL-28 > 100 µM

Sc1cnnc2ccc(Br)cc12
inactive: ACHN 28.5 µM | SW-620 > 100 µM | OVCAR-5 > 100 µM | HOP-92 42.7 µM | NCI-H460 35.6 µM | HL-60 36.8 µM | HCT-116 86.1 µM | COLO 205 > 100 µM | CAKI-1 73.1 µM | NCI-H522 28 µM | TK-10 38.6 µM | MDA-MB-435 27.4 µM | SK-OV-3 > 100 µM | 786-0 > 100 µM | HOP-62 > 100 µM | SK-MEL-2 26.6 µM | M14 61 µM | SK-MEL-28 40.4 µM

CCCCN(CC)C(=O)C1=C(C)NC(C)=C(C(=O)N(CC)CCCC)C1
inactive: ACHN > 100 µM | SW-620 > 100 µM | OVCAR-5 > 100 µM | HOP-92 > 100 µM | NCI-H460 > 100 µM | HL-60 89.1 µM | HCT-116 > 100 µM | COLO 205 > 100 µM | CAKI-1 > 100 µM | TK-10 > 100 µM | MDA-MB-435 80 µM | SK-OV-3 > 100 µM | 786-0 > 100 µM | HOP-62 > 100 µM | SK-MEL-2 > 100 µM | M14 > 100 µM | SK-MEL-28 > 100 µM

CCOC(=O)CCC1(CCC(=O)OCC)CCCCCCCCC(CCC(=O)OCC)(CCC(=O)OCC)C(=O)C1=O
inactive: ACHN > 100 µM | SW-620 > 100 µM | PC-3 > 100 µM | OVCAR-5 > 100 µM | HOP-92 > 100 µM | NCI-H460 > 100 µM | HCT-116 > 100 µM | COLO 205 > 100 µM | CAKI-1 > 100 µM | NCI-H522 35.5 µM | TK-10 > 100 µM | MDA-MB-435 > 100 µM | SK-OV-3 > 100 µM | 786-0 > 100 µM | HOP-62 > 100 µM | SK-MEL-2 > 100 µM | M14 > 100 µM | SK-MEL-28 > 100 µM

Cc1ccnc2nc3[nH]c4ccccc4c3cc12
inactive: ACHN > 100 µM | SW-620 > 100 µM | PC-3 > 100 µM | OVCAR-5 > 100 µM | HOP-92 > 100 µM | NCI-H460 > 100 µM | HCT-116 > 100 µM | COLO 205 > 100 µM | CAKI-1 > 100 µM | NCI-H522 > 100 µM | TK-10 > 100 µM | MDA-MB-435 > 100 µM | 786-0 24.4 µM | HOP-62 75.7 µM | SK-MEL-2 > 100 µM | M14 > 100 µM

CN(C)c1ccc(/C=C2\C[C@H]3[C@@H]4CCc5cc(OCCN6CCCC6)ccc5[C@H]4CC[C@]3(C)C2=O)cc1
inactive: ACHN 1.73 µM | PC-3 1.78 µM | OVCAR-5 2.03 µM | NCI-H460 1.59 µM | HCT-116 1.21 µM | COLO 205 1.52 µM | CAKI-1 1.45 µM | TK-10 1.64 µM | MDA-MB-435 1.55 µM | SK-OV-3 1.87 µM | 786-0 1.32 µM | SK-MEL-2 1.98 µM | SK-MEL-28 1.53 µM

O=C(NCC(C(=O)OCc1ccccc1)C(=O)OCc1ccccc1)OCc1ccccc1
inactive: ACHN > 100 µM | SW-620 > 100 µM | PC-3 35.4 µM | OVCAR-5 > 100 µM | HOP-92 > 100 µM | NCI-H460 94.6 µM | COLO 205 > 100 µM | CAKI-1 > 100 µM | NCI-H522 72.6 µM | TK-10 > 100 µM | MDA-MB-435 > 100 µM | SK-OV-3 > 100 µM | 786-0 > 100 µM | HOP-62 > 100 µM | SK-MEL-2 > 100 µM | M14 > 100 µM | SK-MEL-28 > 100 µM

CSc1nc2c(c(N(C)C)n1)C=Nn1c(nc3ccccc31)S2
inactive: ACHN 61.2 µM | SW-620 > 100 µM | PC-3 > 100 µM | OVCAR-5 > 100 µM | HOP-92 25.7 µM | NCI-H460 89.1 µM | HCT-116 57.7 µM | COLO 205 > 100 µM | CAKI-1 > 100 µM | NCI-H522 55.5 µM | TK-10 > 100 µM | MDA-MB-435 > 100 µM | SK-OV-3 > 100 µM | 786-0 65 µM | HOP-62 84.3 µM | SK-MEL-2 > 100 µM | M14 > 100 µM | SK-MEL-28 > 100 µM

CCN(CC)CCC1(C(=O)OC)SCCc2ccc(C)cc21 (configuration not stated)
inactive: ACHN > 100 µM | SW-620 > 100 µM | PC-3 > 100 µM | OVCAR-5 > 100 µM | HOP-92 > 100 µM | NCI-H460 > 100 µM | HCT-116 > 100 µM | COLO 205 > 100 µM | CAKI-1 > 100 µM | NCI-H522 > 100 µM | TK-10 > 100 µM | MDA-MB-435 > 100 µM | SK-OV-3 > 100 µM | 786-0 > 100 µM | HOP-62 > 100 µM | SK-MEL-2 > 100 µM | M14 > 100 µM | SK-MEL-28 > 100 µM

C#CCNCC(=O)O
inactive: ACHN > 100 µM | SW-620 > 100 µM | PC-3 > 100 µM | OVCAR-5 > 100 µM | HOP-92 > 100 µM | HCT-116 > 100 µM | COLO 205 > 100 µM | CAKI-1 > 100 µM | NCI-H522 > 100 µM | TK-10 > 100 µM | MDA-MB-435 > 100 µM | SK-OV-3 > 100 µM | 786-0 > 100 µM | HOP-62 > 100 µM | SK-MEL-2 > 100 µM | M14 > 100 µM | SK-MEL-28 > 100 µM

O=c1cc(N2CCOCC2)[nH]c(=O)n1-c1cccc(C(F)(F)F)c1
inactive: ACHN > 100 µM | SW-620 > 100 µM | OVCAR-5 > 100 µM | HOP-92 > 100 µM | NCI-H460 > 100 µM | HL-60 > 100 µM | HCT-116 > 100 µM | COLO 205 > 100 µM | CAKI-1 > 100 µM | NCI-H522 > 100 µM | TK-10 > 100 µM | MDA-MB-435 > 100 µM | SK-OV-3 > 100 µM | 786-0 > 100 µM | HOP-62 > 100 µM | SK-MEL-2 43.3 µM | M14 > 100 µM | SK-MEL-28 > 100 µM

c1ccc2nc3c(nc2c1)sc1ccccc13
inactive: ACHN 14.3 µM | SW-620 56 µM | OVCAR-5 60.1 µM | NCI-H460 13.6 µM | HL-60 > 100 µM | HCT-116 26.7 µM | COLO 205 58.3 µM | CAKI-1 9.25 µM | NCI-H522 24.2 µM | TK-10 19.3 µM | MDA-MB-435 94.4 µM | SK-OV-3 13.2 µM | 786-0 23 µM | HOP-62 30.7 µM | SK-MEL-2 67.5 µM | M14 > 100 µM | SK-MEL-28 > 100 µM

S=C1N(/N=C/c2c3ccccc3cc3ccccc23)C(=N\c2ccccc2)/C(=N/c2ccccc2)N1c1ccccc1
inactive: SW-620 > 100 µM | PC-3 > 100 µM | OVCAR-5 > 100 µM | HOP-92 > 100 µM | NCI-H460 > 100 µM | HCT-116 > 100 µM | COLO 205 > 100 µM | CAKI-1 > 100 µM | NCI-H522 > 100 µM | TK-10 > 100 µM | MDA-MB-435 > 100 µM | SK-OV-3 > 100 µM | 786-0 > 100 µM | HOP-62 > 100 µM | SK-MEL-2 > 100 µM | M14 > 100 µM | SK-MEL-28 > 100 µM

C/C(=N\Nc1nc2ccccc2o1)c1cccc[n+]1[O-]
inactive: ACHN 12.6 µM | SW-620 5.12 µM | PC-3 5.36 µM | OVCAR-5 11.4 µM | HOP-92 2.53 µM | NCI-H460 9.18 µM | HCT-116 4.84 µM | COLO 205 4.73 µM | CAKI-1 2.69 µM | NCI-H522 3.86 µM | TK-10 3.52 µM | MDA-MB-435 44 µM | SK-OV-3 22.5 µM | 786-0 21.7 µM | HOP-62 10.5 µM | SK-MEL-2 > 100 µM | M14 5.87 µM | SK-MEL-28 24.8 µM
